Reference: US20200179488A1, “Secretin Receptor Agonists to Treat Diseases or Disorders of Energy Homeostasis” (Technische Universität München, priority 2016, published 2020)

Assays:
UCP1 expression = experiment: UCP1 mRNA expression (qRT-PCR) in primary adipocytes from inguinal white adipose tissue; format: cell-based, Mus musculus; details: 0.1 μM secretin or 0.5 μM isoproterenol, 6 hours, normalized to TFIIB (FIG. 4A)
Experimental: For culturing primary adipocytes male 129S1/SvImJ mice ([…] or UCP1-KO mice and wildtype littermates) at the age of 5-6 weeks were used for the dissection of inguinal and epidydimal white adipose tissue and interscapular brown adipose tissue depots. The tissue was carefully minced and treated with collagenase for 45 min at 37° C. The homogenate was filtered through a 250 μm nylon mesh and centrifuged at 500 g to collect the stromal vascular fraction (SVF). The SVF cell pellet was rinsed and seeded into XF96 V3-PS cell culture microplate (Seahorse Bioscience). After reaching confluency, induction medium containing 10% fetal bovine serum (FBS), 0.5 mM isobutylmethylxanthine, 125 nM indomethacin, 1 mM dexamethasone, 850 nM insulin and 1 nM T3 was added. […] Respiration was measured on day 7 of differentiation. […] RNA was eluted in 50 μl nuclease-free water and RNA concentration was determined spectrophotometrically (Infinite 200 PRO NanoQuant, Tecan, Männedorf/Switzerland). Reverse transcription into cDNA was performed with 500 ng RNA in a final volume of 10 μl (Quantitect Reverse Transcription Kit, Quiagen, Hilden/Germany). qRT-PCR was conducted on 384 well plates in a total volume of 12.5 μl comprising 6.25 μl SensiMix SYBR No-ROX (Bioline, London/UK), 250 nM forward and reverse primers, and 1 μl template cDNA (LightCycler 480 System, Roche Diagnostics, Rotkreuz/Switzerland). […]

wildtype mice = experiment: Indirect calorimetry, heat production after i.p. injection in wildtype mice; format: in vivo, Mus musculus; details: 0.5 mg/kg i.p., 27° C.
Experimental: Indirect calorimetric measurements in mice were performed using an open flow respirometry system (Phenomaster, TSE Systems, Bad Homburg/Germany). All animals were kept at room temperature or cold-acclimated at 4° C. for 4 days as indicated in the results section. For the gas exchange measurement (O2 consumption and CO2 production) mice were placed individually in metabolic cages (type I, 3 liter volume) without food and water and transferred to a climate cabinet (TPK 600, Feutron, Greiz/Germany). The air was continuously pulled through the cages at a flow rate of 33 l/h. For gas analysis a subsample was dried in a cooling trap and analyzed for gas exchange. Mice in the cabinet were preconditioned to 30° C. and the basal metabolic rate (BMR) in the post-absorptive state was measured between 8:00 a.m.-12:00 p.m. The O2 consumption and CO2 production of each mouse was analyzed every 5 min over a period of 1 min. […] After injection the O2 consumption and CO2 production rate of each mouse was recorded for 45-60 min with high-resolution recordings at 10 sec intervals. […] Respiratory exchange ratios (RER) and heat production (HP) were calculated from the following formula: (RER=CO2 production/O2 consumption) and (HP[mW]=(4.44+1.43*respiratory exchange ratio)*oxygen consumption [ml/h]).

For secretin, the “UCP1 mRNA expression in white adipocytes versus PBS” value (UCP1 expression) was “increased the expression of UCP1”, the “AUC of heat production versus PBS” value (wildtype mice; 129/S6 wildtype mice, 45 minutes, basal subtracted, p=0.001 (FIG. 5B)) was “significant increase in the AUC” and the “AUC of heat production versus PBS” value (wildtype mice; wildtype mice of 129/S1-UCP1 knockout strain, 60 minutes, p=0.002 (FIG. 6C)) was “higher AUC”.
